# Results published in ChEMBL document CHEMBL1201862, “PubChem BioAssay data set” (2004).
#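 Each compound was tested at five concentrations against cells in 96-well plates for 48 hours. Here, GI50 denotes the concentration required for 50% inhibition of growth.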 Calls of active or inactive are those of the source. Rule as the data show it: active = GI50 up to about 1.1 µM and inactive = higher.
# Key:
# Assay in all cases: NCI anticancer screen, dose series, 48 h
# CAKI-1 = system: CAKI-1
# HCT-15 = system: HCT-15
# BT-549 = system: BT-549
# M14 = system: M14
# PC-3 = system: PC-3
# SN12C = system: SN12C
# OVCAR-4 = system: OVCAR-4
# HOP-62 = system: HOP-62
# EKVX = system: EKVX
# NCI/ADR-RES = system: NCI/ADR-RES
# LOX IMVI = system: LOX IMVI
# UACC-257 = system: UACC-257
# Malme-3M = system: Malme-3M
# MCF7 = system: MCF7
# NCI-H23 = system: NCI-H23
# SW-620 = system: SW-620
# IGROV-1 = system: IGROV-1
# MDA-MB-231 = system: MDA-MB-231
# MOLT-4 = system: MOLT-4
# U-251 = system: U-251
# TK-10 = system: TK-10
# A498 = system: A498
# SNB-19 = system: SNB-19
# DU-145 = system: DU-145
# T47D = system: T47D
# COLO 205 = system: COLO 205
# OVCAR-8 = system: OVCAR-8
# RXF 393 = system: RXF 393
# OVCAR-3 = system: OVCAR-3
# SK-MEL-5 = system: SK-MEL-5
# 786-0 = system: 786-0
# NCI-H522 = system: NCI-H522
# SK-MEL-2 = system: SK-MEL-2
# NCI-H460 = system: NCI-H460
# A549 = system: A549
# SR = system: SR
# CCRF-CEM = system: CCRF-CEM
# HCC 2998 = system: HCC 2998
# UACC-62 = system: UACC-62
# OVCAR-5 = system: OVCAR-5
# HOP-92 = system: HOP-92
# K562 = system: K562
# MDA-MB-435 = system: MDA-MB-435
# SF-539 = system: SF-539
# SK-OV-3 = system: SK-OV-3
# NCI-H226 = system: NCI-H226
# SK-MEL-28 = system: SK-MEL-28
# SNB-75 = system: SNB-75
# UO-31 = system: UO-31
# HCT-116 = system: HCT-116
# ACHN = system: ACHN
# KM12 = system: KM12
# SF-268 = system: SF-268
# HT-29 = system: HT-29
# SF-295 = system: SF-295
# MDA-N = system: MDA-N
structure (smiles),measurement,setting,value
CCCCOC(C)(C)/C=C/C(O)[C@](C)(O)[C@H]1[C@H](O)C[C@@]2(C)[C@@H]3CCc4c(cc(OC5OC(CO)C(O)C(O)C5O)c(O)c4C)C3(C)C(=O)C[C@]12C (stereo partly specified),GI50,CAKI-1,> 100 µM (inactive)
same,GI50,HCT-15,> 100 µM
same,GI50,BT-549,> 100 µM (inactive)
same,GI50,M14,> 100 µM (inactive)
same,GI50,PC-3,> 100 µM (inactive)
same,GI50,SN12C,> 100 µM (inactive)
same,GI50,OVCAR-4,> 100 µM (inactive)
same,GI50,HOP-62,> 100 µM (inactive)
same,GI50,EKVX,> 100 µM (inactive)
same,GI50,NCI/ADR-RES,> 100 µM (inactive)
same,GI50,LOX IMVI,> 100 µM (inactive)
same,GI50,UACC-257,> 100 µM (inactive)
same,GI50,Malme-3M,> 100 µM (inactive)
same,GI50,MCF7,> 100 µM (inactive)
same,GI50,NCI-H23,> 100 µM (inactive)
same,GI50,SW-620,> 100 µM (inactive)
same,GI50,IGROV-1,> 100 µM (inactive)
same,GI50,MDA-MB-231,> 100 µM (inactive)
same,GI50,MOLT-4,> 100 µM (inactive)
same,GI50,U-251,> 100 µM (inactive)
same,GI50,TK-10,> 100 µM (inactive)
same,GI50,A498,> 100 µM (inactive)
same,GI50,SNB-19,> 100 µM (inactive)
same,GI50,DU-145,> 100 µM (inactive)
same,GI50,T47D,> 100 µM (inactive)
same,GI50,COLO 205,> 100 µM (inactive)
same,GI50,OVCAR-8,> 100 µM (inactive)
same,GI50,RXF 393,> 100 µM (inactive)
same,GI50,OVCAR-3,> 100 µM (inactive)
same,GI50,SK-MEL-5,> 100 µM (inactive)
same,GI50,786-0,> 100 µM (inactive)
same,GI50,NCI-H522,> 100 µM (inactive)
same,GI50,SK-MEL-2,> 100 µM (inactive)
same,GI50,NCI-H460,> 100 µM (inactive)
same,GI50,A549,> 100 µM (inactive)
same,GI50,SR,> 100 µM (inactive)
same,GI50,CCRF-CEM,> 100 µM (inactive)
same,GI50,HCC 2998,> 100 µM (inactive)
same,GI50,UACC-62,> 100 µM (inactive)
same,GI50,OVCAR-5,> 100 µM (inactive)
same,GI50,HOP-92,> 100 µM (inactive)
same,GI50,K562,> 100 µM (inactive)
same,GI50,MDA-MB-435,> 100 µM (inactive)
same,GI50,SF-539,> 100 µM (inactive)
same,GI50,SK-OV-3,> 100 µM (inactive)
same,GI50,NCI-H226,> 100 µM (inactive)
same,GI50,SK-MEL-28,> 100 µM (inactive)
same,GI50,SNB-75,> 100 µM (inactive)
same,GI50,UO-31,> 100 µM (inactive)
same,GI50,HCT-116,> 100 µM (inactive)
same,GI50,ACHN,> 100 µM (inactive)
same,GI50,KM12,> 100 µM (inactive)
same,GI50,SF-268,> 100 µM (inactive)
same,GI50,HT-29,> 100 µM (inactive)
same,GI50,SF-295,> 100 µM (inactive)
same,GI50,MDA-N,> 100 µM (inactive)
